Test results published in patent US4875925A, “Herbicidal method using diflufenican” (May & Baker Limited, priority 1986, dated 1989).

What was measured:
Format in all cases: in vivo
[1] = tested on: Winter wheat (variety Galahad); experiment: Field crop phytotoxicity, winter wheat (Experiment 3); details: diflufenican 80 g/ha, trifluralin 800 g/ha, or both
Text: (§1) Diflufenican formulated as a 50% w/v aqueous suspension concentrate (Example 2), trifluralin as a 48% w/v emulsifiable concentrate (commercial product and a mixed formulation of diflufenican and trifluralin containing 44% w/v total active ingredient (Example 6) were applied at 0.16 l, 1.67 l and 2 l/ha respectively pre-emergence and just at emergence to winter barley and winter wheat to control Lamium purpureum pre-emergence under field conditions. The treatments were applied to three replicate 30 m^2 plots in a spray volume of 220 l/ha (winter barley) and 206 l/ha (winter wheat) using a motorised small plot sprayer. Visual % phytotoxicity was recorded and the results are given below.

[2] = tested on: Lamium purpureum; experiment: Field control of Lamium purpureum in winter barley and winter wheat (Experiment 3); details: diflufenican 80 g/ha, trifluralin 800 g/ha, or both; for % weed phytotoxicity 72 days after spraying: in winter barley (variety Igri); for % weed phytotoxicity 98 days after spraying: in winter wheat (variety Galahad)
Text: as §1

[3] = tested on: Winter barley (variety Igri); experiment: Field crop phytotoxicity, winter barley (Experiment 3); details: diflufenican 80 g/ha, trifluralin 800 g/ha, or both
Text: as §1

[4] = tested on: Galium aparine; experiment: Greenhouse post-emergence weed control, Galium aparine (Experiment 2); details: 2 whorl stage, 14 days after treatment
Protocol: (§2) Greenhouse experiment showing the nature of biological synergism between pendimethalin and diflufenican applied post-emergence
(§3) A similar experiment to that hereinbefore described in Experiment 1 was carried out with pendimethalin and diflufenican applied to either 4 plants of Stellaria media at the 2 leaf stage or 4 plants of Galium aparine at the 2 whorl (branching initiated) stage. The following 90% herbicidally effective doses (ED90) in grams of diflufenican per hectare were calculated from the mean percentage weed control 14 days after treatment.

[5] = tested on: Stellaria media; experiment: Greenhouse post-emergence weed control, Stellaria media (Experiment 2); details: 2 leaf stage, 14 days after treatment
Protocol: as §2, §3

[6] = tested on: Alopecurus myosuroides; experiment: Greenhouse pre-emergence weed control, pendimethalin and diflufenican (Experiment 1); details: 22 days after treatment
Protocol: Greenhouse experiment showing the nature of biological synergism between pendimethalin and diflufenican applied pre-emergence
A factorial experiment with 30 treatments was carried out to investigate the interaction of pendimethalin and diflufenican at a wide range of doses i.e. 0, 250, 500, 1000 and 2000 g/ha of pendimethalin plus diflufenican at 0, 31, 62, 125, 250 and 500 g/ha.
All treatments were made in an appropriate volume of water by using appropriate quantities of a 33% w/v emulsifiable concentrate of pendimethalin (commercial product) and diflufenican formulated as an experimental aqueous suspension concentrate (Example 2 hereinafter) containing 50% w/v active ingredient to give the above dose rates in a spray volume of 290 l/ha. All treatments were applied using a laboratory sprayer fitted with a Sparying Systems Teejet SS 8003E operating at 2.94 kgf/cm^2. Treatments were applied to about 20 Alopecurus myosuroides seeds sown 1 cm deep in a loamy soil in 7.5 cm square pots. There were 4 replicate pots per treatment which were arranged in a randomised block design in a glasshouse after treatment. The pots were watered by a combination of overhead irrigation and sub-irrigation. A visual assessment of weed control was made 22 days after treatment as a percentage compared to the untreated pots. […]

| SMILES | Maximum % crop phytotoxicity [1] [%] | % weed phytotoxicity 72 days after spraying [2] [%] | % weed phytotoxicity 98 days after spraying [2] [%] | Maximum % crop phytotoxicity [3] [%] | ED90 (90% herbicidally effective dose) ([4]; diflufenican alone) | ED90 (90% herbicidally effective dose) ([5]; diflufenican alone) | ED50 (50% herbicidally effective dose) ([6]; diflufenican alone) | ED90 of pendimethalin alone ([4]; pendimethalin alone) | ED90 of pendimethalin alone ([5]; pendimethalin alone) [g/ha] | ED50 of pendimethalin alone ([6]; pendimethalin alone) [g/ha] |
| --- | --- | --- | --- | --- | --- | --- | --- | --- | --- | --- |
| CCCN(CCC)c1c([N+](=O)[O-])cc(C(F)(F)F)cc1[N+](=O)[O-] [Trifluralin, 2,6-dinitro-N,N-dipropyl-4-trifluoromethylaniline] | 0 | 20 | 5 | 0 | – | – | – | – | – | – |
| O=C(Nc1ccc(F)cc1F)c1cccnc1Oc1cccc(C(F)(F)F)c1 [diflufenican, N-(2,4-difluorophenyl)-2-(3-trifluoromethylphenoxy)nicotinamide] | 0 | 40 | 80 | 5.8 | > 500 grams of diflufenican per hect | 340 grams of diflufenican per hect | 370 grams of diflufenican per hect | – | – | – |
| CCC(CC)Nc1c([N+](=O)[O-])cc(C)c(C)c1[N+](=O)[O-] [pendimethalin, N-(1-ethylpropyl)-3,4-dimethyl-2,6-dinitroaniline] | – | – | – | – | – | – | – | greater than 2000 g/ha | 1653 | 2071 |
